Experimental data reported in ChEMBL document CHEMBL5614467, “Structure-Activity Relationship of Truncated 4'-Selenonucleosides: A3 Adenosine Receptor Activity and Binding Selectivity” (ACS Med Chem Lett, 2024).

Experiments:
Adenosine receptor A3 [1] = molecular target: T1, Adenosine receptor A3 (Homo sapiens, UniProt P0DMS8); assay: Displacement of [3H]NECA from human adenosine A3 receptor extracted from human HeLa cell membrane assessed as inhibition constant incubated for 180 mins by microplate scintillation counter; type: cell membranes
T1 sequence (P0DMS8 whole entry): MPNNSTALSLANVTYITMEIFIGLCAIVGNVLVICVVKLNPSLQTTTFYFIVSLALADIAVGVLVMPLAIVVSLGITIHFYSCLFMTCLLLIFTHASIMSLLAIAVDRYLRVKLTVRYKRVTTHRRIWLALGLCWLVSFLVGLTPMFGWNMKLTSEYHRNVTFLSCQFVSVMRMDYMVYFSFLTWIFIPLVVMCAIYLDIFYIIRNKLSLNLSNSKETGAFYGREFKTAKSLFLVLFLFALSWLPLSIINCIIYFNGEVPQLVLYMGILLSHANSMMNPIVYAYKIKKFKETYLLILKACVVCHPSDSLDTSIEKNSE

[2] = molecular target: T2, Adenosine receptor A2b (Homo sapiens) (UniProt P29275); assay: Displacement of [3H]DPCPX from human adenosine A2B receptor extracted from HEK293 cell membrane assessed as inhibition of [3H]DPCPX binding at 10 uM incubated for 30 mins by microplate beta scintillation counter relative to control; type: cell membranes
T2 sequence (whole entry): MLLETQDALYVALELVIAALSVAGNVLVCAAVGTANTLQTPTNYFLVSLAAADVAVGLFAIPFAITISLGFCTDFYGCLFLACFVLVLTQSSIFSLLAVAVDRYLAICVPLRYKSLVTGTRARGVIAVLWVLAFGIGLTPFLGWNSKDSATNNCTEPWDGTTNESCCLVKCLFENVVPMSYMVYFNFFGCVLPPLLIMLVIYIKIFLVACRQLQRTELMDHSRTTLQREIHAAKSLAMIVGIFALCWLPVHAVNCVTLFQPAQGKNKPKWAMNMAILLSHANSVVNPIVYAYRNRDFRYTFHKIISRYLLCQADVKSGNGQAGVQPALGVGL

[3] = molecular target: T3, Adenosine receptor A1 (Homo sapiens) (UniProt P30542); assay: Displacement of [3H]DPCPX from human adenosine A1 receptor extracted from CHO cell membrane assessed as inhibition of [3H]DPCPX binding at 10 uM incubated for 60 mins by microplate beta scintillation counter relative to control; type: cell membranes
T3 sequence (whole entry): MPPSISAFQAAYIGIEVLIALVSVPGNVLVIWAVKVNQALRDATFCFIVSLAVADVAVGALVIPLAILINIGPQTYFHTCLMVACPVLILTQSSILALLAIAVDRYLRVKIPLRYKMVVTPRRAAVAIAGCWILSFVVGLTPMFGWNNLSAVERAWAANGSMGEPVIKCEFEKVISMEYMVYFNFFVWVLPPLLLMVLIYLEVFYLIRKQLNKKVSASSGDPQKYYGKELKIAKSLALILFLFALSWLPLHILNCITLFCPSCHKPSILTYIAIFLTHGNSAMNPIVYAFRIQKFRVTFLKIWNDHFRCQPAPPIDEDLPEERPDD

[4] = molecular target: Adenosine receptor A2a (Homo sapiens) (UniProt P29274); assay: Displacement of [3H]ZM241385 from human adenosine A2A receptor extracted from human HeLa cell membrane assessed as inhibition of [3H]ZM241385 binding at 10 uM incubated for 30 mins by microplate beta scintillation counter relative to control; type: cell membranes
Adenosine receptor A3 [5] = molecular target: T1, Adenosine receptor A3; assay: Binding affinity to human adenosine A3 receptor assessed as inhibition constant
Adenosine receptor A3 [6] = molecular target: T1, Adenosine receptor A3; assay: Displacement of [125I]iodo-AB-MECA from human adenosine A3 receptor expressed in CHO cells assessed as inhibition constant; type: cell-based
[7] = molecular target: T4, Adenosine receptor A3 (Homo sapiens) (UniProt P0DMS8); assay: Antagonist activity at human adenosine A3 receptor expressed in CHO cells assessed as inhibition of cAMP production preincubated for 15 mins followed by NECA addition for 10 mins and measured 5 mins after forskolin addition by enzyme immunoassay relative to control; type: functional, cell-based; settings: time 30.0 min
T4 sequence (whole entry): T1 sequence (P0DMS8 whole entry)

[8] = molecular target: T4, Adenosine receptor A3 (Homo sapiens); assay: Partial agonist activity at human adenosine A3 receptor expressed in CHO cells assessed as cAMP production preincubated for 15 mins followed by forskolin addition and measured after 5 mins by enzyme immunoassay relative to control; type: functional, cell-based; settings: filed as partial agonist, time 20.0 min

Chain of Adenosine receptor A2a (Homo sapiens) (P29274 whole entry): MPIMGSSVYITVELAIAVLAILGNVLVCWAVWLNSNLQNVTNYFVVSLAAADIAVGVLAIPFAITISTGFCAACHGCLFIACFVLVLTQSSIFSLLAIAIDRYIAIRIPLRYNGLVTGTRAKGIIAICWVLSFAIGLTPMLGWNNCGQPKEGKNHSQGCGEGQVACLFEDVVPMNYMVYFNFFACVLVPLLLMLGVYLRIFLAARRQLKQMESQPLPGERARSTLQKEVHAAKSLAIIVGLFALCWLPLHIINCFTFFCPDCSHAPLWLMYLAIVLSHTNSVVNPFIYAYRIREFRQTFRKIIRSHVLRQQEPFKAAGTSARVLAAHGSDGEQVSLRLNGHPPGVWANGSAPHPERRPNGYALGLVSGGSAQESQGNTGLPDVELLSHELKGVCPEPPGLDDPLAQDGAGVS

Row | Structure (SMILES) | Ki (Adenosine receptor A3 [1]) [nM] | inhibition [2] [%] | inhibition [3] [%] | inhibition [4] [%] | Ki (Adenosine receptor A3 [5]) [nM] | Ki (Adenosine receptor A3 [6]) [nM] | inhibition [7] [%] | Activity [8] [%]
1 | O[C@@H]1[C@H](O)C[Se][C@H]1n1cnc2c(NC3CCCC3)nc(Cl)nc21 | 16.9 | 37 | 54 | 13 |  |  |  | 
2 | CNc1ncnc2c1ncn2[C@@H]1[Se]C[C@@H](O)[C@H]1O | 31.1 | 1 | 7 | 2 |  |  |  | 
3 | O[C@@H]1[C@H](O)C[Se][C@H]1n1cnc2c(NCc3cccc(Cl)c3)ncnc21 | 32.5 | 30 | 32 | 25 |  |  |  | 
4 | O[C@@H]1[C@H](O)C[Se][C@H]1n1cnc2c(NCc3cccc(I)c3)nc(Cl)nc21 | 109 | 67 | 57 | 24 |  |  |  | 
5 | CNC(=O)C1O[C@@H](n2cnc3c(Nc4cccc(I)c4)nc(Cl)nc32)[C@H](O)[C@@H]1O (stereo partly specified) |  |  |  |  | 1.4 |  |  | 
6 | Nc1ncnc2c1ncn2[C@@H]1[Se]C[C@@H](O)[C@H]1O | 238 | 25 | 10 | 33 |  |  |  | 
7 | O[C@@H]1[C@H](O)C[Se][C@H]1n1cnc2c(NCc3cccc(Br)c3)ncnc21 | 20.9 | 37 | 39 | 28 |  |  |  | 
8 | O[C@@H]1[C@H](O)C[Se][C@H]1n1cnc2c(NCc3cccc(Cl)c3)nc(Cl)nc21 | 33.2 | 41 | 66 | 29 |  |  |  | 
9 | Nc1nc(Cl)nc2c1ncn2[C@@H]1[Se]C[C@@H](O)[C@H]1O | 358 | 35 | 22 | 12 |  |  |  | 
10 | O[C@@H]1[C@H](O)C[Se][C@H]1n1cnc2c(NC3CC3)ncnc21 | 13.6 | 15 | 20 | 9 |  |  |  | 
11 | O[C@@H]1[C@H](O)C[Se][C@H]1n1cnc2c(NCc3cccc(Br)c3)nc(Cl)nc21 | 38.4 | 43 | 62 | 35 |  |  |  | 
12 | O[C@@H]1[C@H](O)C[Se][C@H]1n1cnc2c(NCc3cccc(I)c3)ncnc21 | 43.2 | 20 | 25 | 19 |  |  |  | 
13 | CNC(=O)C1S[C@@H](n2cnc3c(Nc4cccc(I)c4)nc(Cl)nc32)[C@H](O)[C@@H]1O (stereo partly specified) |  |  |  |  |  | 0.38 |  | 
14 | CCNc1ncnc2c1ncn2[C@@H]1[Se]C[C@@H](O)[C@H]1O | 17.5 | 7 | 25 | 2 |  |  |  | 
15 | O[C@@H]1[C@H](O)C[Se][C@H]1n1cnc2c(NC3CCCC3)ncnc21 | 36.6 | 7 | 39 | 16 |  |  |  | 
16 | O[C@@H]1[C@H](O)C[Se][C@H]1n1cnc2c(NCc3cccc(F)c3)nc(Cl)nc21 | 97.1 | 22 | 23 | 7 |  |  |  | 
17 | CNc1nc(Cl)nc2c1ncn2[C@@H]1[Se]C[C@@H](O)[C@H]1O | 25.2 | 28 | 14 | 3 |  |  |  | 
18 | O[C@@H]1[C@H](O)C[Se][C@H]1n1cnc2c(NC3CC3)nc(Cl)nc21 | 5.7 | 29 | 26 | 6 |  |  | 11 | 87
19 | CCNc1nc(Cl)nc2c1ncn2[C@@H]1[Se]C[C@@H](O)[C@H]1O | 5.2 | 18 | 31 | 3 |  |  |  | 
20 | O[C@@H]1[C@H](O)C[Se][C@H]1n1cnc2c(NCc3cccc(F)c3)ncnc21 | 121 | 8 | 12 | 2 |  |  |  | 
